SMILES strings stand for the structures. Some results are limits rather than exact numbers.

The nature of series [1]: Antioxidant activity assessed as DPPH radical scavenging activity measured after 1 hrs. The class given is functional. (Loss of DPPH colour is used to gauge radical scavenging.)
Series [2] has as its system Human immunodeficiency virus. Description: Antiviral activity against HIV infected in MT4 cells assessed as viral replication. The class given is functional, organism-based. To be noted: Human immunodeficiency virus 1, MT4.
Series [3] can be described thus: Antioxidant activity assessed as DPPH radical scavenging activity measured after 30 mins. In kind it is functional.
The subject of the next series is MCF7. Description: Anticancer activity against human MCF7 cells assessed as cell growth inhibition measured after 72 hrs by MTT assay. The class given is functional, cell-based. To be noted: MCF7, 72 h.
A further series deals with PC-3. Description: Anticancer activity against human PC-3 cells assessed as cell growth inhibition measured after 72 hrs by MTT assay. The class given is functional, cell-based. The settings on record: PC-3, 72 h. (Formazan colour is commonly taken as a measure of viable cells.)
In a further series the test system is Rattus norvegicus. Description: Antidiabetic activity against overnight fasted STZ-induced Wistar rat of type 1 diabetes assessed as increase in insulin level at 1 mg/kg, po by ELISA (reference value: 7.7 +/- 1.0 microIU/mL). The class given is functional.
Series [4] is described as follows: Toxicity in STZ-induced Wistar rat of type 1 diabetes assessed as coronary arterial flow rate at 3 mg/kg, ip administered twice daily measured after 4 weeks (reference value: 12.6 +/- 0.5 mL/min). In kind it is organism-based. To be noted: in vivo, 672 h.
In series [5] the test system is Mus musculus. Nature of the series: Antidiabetic activity in STZ-induced Swiss albino mouse assessed as blood glucose level at 5 microM/kg, ip administered twice daily measured after 21 days (reference value: 220 +/- 7.2mg/dl). The class given is functional. The settings on record: time 21 day.
Series [6] concerns Mus musculus. Description: Antidiabetic activity in STZ-induced Swiss albino mouse assessed as insulin level at 5 microM/kg, ip administered twice daily measured after 21 days (reference value: 88.7%). In kind it is functional. To be noted: time 21 day, at 5 µmol/kg.
Series [7] relates to Mus musculus. Description: Antidiabetic activity in STZ-induced Swiss albino mouse assessed as inhibition of IL-1beta level at 5 microM/kg, ip administered twice daily measured after 21 days relative to control. The class given is functional. More on the design: scale not given: the % may be the effect or the level left. To be noted: time 21 day, at 5 µmol/kg.
In series [8] the test system is Mus musculus. Nature of the series: Antidiabetic activity in STZ-induced Swiss albino mouse assessed as inhibition of IFN-gamma level at 5 microM/kg, ip administered twice daily measured after 21 days relative to control. In kind it is functional. Set-up: scale not given: the % may be the effect or the level left. To be noted: time 21 day, at 5 µmol/kg.
Series [9] concerns Mus musculus. Description: Antidiabetic activity in STZ-induced Swiss albino mouse assessed as inhibition of NO level at 5 microM/kg, ip administered twice daily measured after 21 days relative to control. Set-up: scale not given: the % may be the effect or the level left. The class given is functional. The settings on record: time 21 day, at 5 µmol/kg.
The subject of series [10] is Mus musculus. Description: Antiinflammatory activity in STZ-induced C57BL/6J mouse of non insulin dependent diabetes mellitus assessed as PPAR-alpha level at 30 mg/kg. In kind it is functional.
The test system of series [11] is Mus musculus. Description: Antidiabetic activity in STZ-induced C57BL/6J mouse assessed as increase in insulin sensitivity at 30 mg/kg. The class given is functional.
Series [12] in a line: Induction of insulin-sensitizing activity in insulin-resistant human HepG2 cells assessed as increase in glucose consumption at 30 ng/ml relative to control. In kind it is functional, insulin-resistant human HepG2 cell.
A short description of series [13]: Induction of insulin-sensitizing activity in insulin-resistant human HepG2 cells assessed as increase in glucose consumption at 60 ng/ml relative to control. The class given is functional, insulin-resistant human HepG2 cell.

Take `C[C@@]1(C(=O)O)O[C@H]1COC(=O)/C=C/c1ccc(O)c(O)c1`: in series [1], the FRS50 turned out to be 43.8 µM.
Regarding `O=C1C=C(Cn2cc(COc3ccc(CO)cc3)nn2)C(=O)C=C1O`, the 50% inhibitory concentration (IC50) in series [2] was found to be 4.2 µM.
Regarding `O=C(/C=C/c1ccc(O)c(O)c1)O[C@@H]1[C@H](O)C[C@@](O)(C(=O)O)C[C@H]1OC(=O)/C=C/c1ccc(O)c(O)c1`, the FRS50 in series [1] was 19.8 µM.
`COC(=O)/C=C/c1cc(O)c(O)cc1O`: in series [3], the half-maximal inhibitory concentration (IC50) stood at 53.3 µM.
`CCCCCCCCCCOC/C=C/c1cccc(O)c1`: the IC50 with MCF7 and in the series with PC-3 was over 10 µM throughout.
Take `O=c1c(O)c(-c2ccc(O)c(O)c2)oc2cc(O)cc(O)c12`: the FRS50 in [1] turned out to be 13.4 µM.
Take `O=C(O)/C=C/c1ccc(O)c(O)c1` [CAFFEIC ACID]: in series [3], the IC50 came to 32.2 µM.
For `CCCCCCCCCCOC/C=C/c1cc(O)c(O)c(O)c1`, the IC50 with MCF7 was 0.8 µM; in the series with PC-3, 0.6 µM.
With `CCCCCCCCCCOC/C=C/c1ccc(O)c(O)c1`, the IC50 in the series on MCF7 is 1.7 µM; in the series on PC-3, 0.6 µM.
For `Oc1ccc(/C=C/COCCCCCCc2ccccc2)cc1`, the IC50 in the series with MCF7 and with PC-3 was over 10 µM each time.
With `CC(=O)/C=C/c1ccc(O)c(O)c1O`, the IC50 in series [3] came out at 16.8 µM.
Regarding `CCCCCCCCCCOC/C=C/c1ccc(O)cc1`, the IC50 in the series on MCF7 and in the series on PC-3 was over 10 µM in each case.
For the molecule `O=C(/C=C/c1ccc(O)c(O)c1)NCCc1ccccc1` [CAFFEIC ACID PHENETHYL AMIDE], the Activity with Rattus norvegicus worked out at 14.9 uIU/ml; in series [4], 11.2 mL/min.
Consider `Oc1ccc(/C=C/COCCc2ccccc2)cc1O`, for which the IC50 in the series on MCF7 came to 8 µM; in the series with PC-3, 1.2 µM.
For `O=C(/C=C/c1ccc(O)c(O)c1)O[C@@H]1C[C@](O)(C(=O)O)C[C@@H](OC(=O)/C=C/c2ccc(O)c(O)c2)[C@H]1O`, the FRS50 in series [1] is 71.8 µM.
In the case of `O=C(/C=C/c1ccc(O)c(O)c1)O[C@H]1[C@H](O)C[C@](O)(C(=O)O)C[C@H]1OC(=O)/C=C/c1ccc(O)c(O)c1`, the FRS50 in [1] is 23.8 µM.
In the case of `Oc1ccc(/C=C/COCCCCCCc2ccccc2)cc1O`, the IC50 turned out to be 2.4 µM in the series on MCF7 and 1.4 µM with PC-3.
Consider `O=C(/C=C/c1ccc(O)c(O)c1)OCCc1ccccc1` [CAFFEIC ACID PHENETHYL ESTER], for which the Activity worked out at 137 mg/dL in the series on Mus musculus [5]; 93.8% in the series on Mus musculus [6]; 43.2% in the series on Mus musculus [7]; 26.3% in the series on Mus musculus [8]; 58.3% in the series on Mus musculus [9]; 38.6% in the series on Mus musculus [10]. For the same molecule, the Activity in the series on Mus musculus [11] amounted to 20.8%; in [12], 17.1%; in series [13], 24.3%.
In the case of `Oc1ccc(/C=C/COCCc2ccccc2)cc1`, the IC50 in the series on MCF7 and in the series on PC-3 was over 10 µM in each case.
For the molecule `COC(=O)/C=C/c1ccc(O)c(O)c1O`, in series [3], the half-maximal inhibitory concentration (IC50) worked out at 18.6 µM.

A word on the IC50: it is the concentration that inhibits the measured activity by half.

The record behind these values is ChEMBL document CHEMBL5331056 (Eur J Med Chem, 2022).
